pIC50: −log10 of the molar value. ≈ marks a conversion by molar mass, not a printed value.
Columns and labels:
[1] = system: Jurkat cells; assay type: cell-based; conditions: 16 h
Method: Toxicity of peptide compositions for mammalian cells was determined by using a metabolic viability assay. For this assay 4×10^5 HeLa cells were seeded per well into a microwell plate (50 microliters volume). Jurkat cells also were utilized in separate experiments. The cells were incubated for 16 hours at 37° C. under mammalian cell culture conditions. Two fold serial dilutions for each peptide were prepared and added to the cells (final volume 100 microliters) and incubated for 16 hours at 37° C. For each dilution series control wells containing cells without peptide were included. The metabolic activity and viability of the cells were determined by using a commercially available assay (CellTiter96 assay, Promega Corp.). According to manufacturer's protocol 20 microliters of CellTiter reagent was added to each well and incubated at 37° C. for 1-4 hours. The CellTiter assay is a commercial version of the MTT assay, which measures the conversion of a tetrazolium […] into a colored formazan salt in metabolically active cells. The formation of the formazan product can be measured at 470 nm and is generally accepted as a measure of cellular viability. The cells were incubated at 37° C. and monitored for color development. The conversion of CellTiter reagent was measured at 470 nm using a Versamax plate reader (Molecular Devices). The viability of peptide treated cells is expressed as IC50 (i.e., concentration that leads to a 50% reduction of viability relative to the untreated control). Table 7A reports IC50 values for HeLa cells cultured in OptiMEM or 10% FBS when contacted with peptide compositions from Table 3, and Table 7B reports IC50 values for HeLa cells or Jurkat cells contacted with peptide compositions from Table 3.

[2] = system: indigenous bacteria in human sebum; assay: Human sebum assay, bactericidal activity; assay type: cell-based; conditions: 250 Micromolar peptide, 150 minutes at 37° C; none: 8500000
Method: Sebum was harvested from healthy human volunteers using Biore® deep cleansing pore strips. The seburn plugs were collected in a microtube with a tweezer. […] The seburn was resusupended in 1% TSB, 10 mM Na2HPO4 into fine particulate suspension. The assay was performed in a total volume of 50 microliters. […] The samples were incubated for 150 minutes at 37° C. To determine the number of viable bacteria, a serial dilution was prepared (10 fold dilutions to 1/100000). […] After incubation for 72 hours bacterial growth was documented (Alpha Innotech documentation system). The number of CFU/milliliter was determined by counting bacteria colonies. The efficacy of a peptide is indicated by the reduction of CFU/milliliter compared to the untreated control.

[3] = system: P. acnes, ATCC 6919; assay: Broth microdilution assay for P. acnes MBC, Table 4B; assay type: cell-based, Propionibacterium acnes; conditions: 3 log or greater reduction in CFU/milliliter after 2.5 hours
Text: The strain of P. acnes was purchased from ATCC (strain #6919) (Manassas, Va.). […] HeLa cells were purchased from ATCC (CCL2). Tryptic soy broth (TSB), Brucella broth, reinforced Clostridial broth and agar were purchased from Becton & Dickinson (distributed by VWR, West Chester, Pa.). All plastic consumables were purchased from VWR (West Chester, Pa.). Chemicals were purchased from Sigma Aldrich (St. Louis, Mo.). DMEM, antibiotics and cell culture supplements were purchased from Invitrogen (Carlsbad, Calif.), fetal calf serum (FCS) was purchased from Hyclone (Logan, Utah). […] For propagation in liquid culture individual colonies were inoculated in […] of TSB broth for 16 hours at 37° C. under constant shaking. P. acnes was grown on Brucella broth blood agar plates (supplemented with 5% defibrinated sheep blood, […] hemin and […] vitamin K) under anaerobic conditions (GasPak system, Becton & Dickinson) for 96 hours at 37° C. For propagation in liquid culture individual colonies were inoculated in […] of reinforced Clostridial broth under anaerobic conditions for 72 hours at 37° C. […] The minimum bactericidal concentration (MBC) of peptide compositions for P. acnes was determined in a microdilution assay. […] The appearance of bacterial colonies was evaluated and documented.

[4] = system: human red blood cells; assay type: cell-based; conditions: red cells of human, 100 Micromolar
Method: Hemoglobin-release assays with human red blood cells (RBC) were performed to determine the hemolytic activity of granulysin peptides. Human RBCs (San Diego Blood Bank, San Diego, Calif.) were washed three times in PBS buffer (8 mM Na2HPO4, 1.5 mM KH2PO4, 140 mM NaCl and 2.7 mM KCl, pH 7.4), resuspended in PBS to the concentration of 5% (v/v). The RBC were then exposed to different peptide compositions at various concentrations (100-6.25 micromolar) and incubated at 37° C. for 60 minutes in a total volume of 120 microliters. Every experiment included a negative control without peptide and maximum control treated with 5% TX-100 for complete hemoglobin release. Samples were centrifuged for 1 minute at 13,000 g to remove debris and intact cells. The hemoglobin-containing supernatant was removed and transferred to a microwell plate. Hemoglobin release was quantified at A540 using a Versamax plate reader (Molecular Devices). The degree of hemolysis is expressed as percentage of hemolysis compared to the […], using the following formula: % hemolysis=(sample−neg. control)/(max. control−neg. control)×100.

[5] = system: E. coli K12 TOP10; conditions: 3 log or greater reduction in bacterial growth over 16 hours

## CSCC[C@@H](NC(=O)[C@@H](Cc1ccccc1)NC(=O)[C@@H](CC(N)=O)NC(=O)[C@@H](CCCNC(=N)N)NC(=O)[C@@H](CO)NC(=O)[C@@H](Cc1c[nH]c2ccccc12)NC(=O)[C@@H](CC(=O)O)NC(=O)[C@@H](CCCNC(=N)N)NC(=O)[C@@H](Cc1c[nH]c2ccccc12)NC(=O)[C@@H](CCCNC(=N)N)NC(=O)[C@@H](CO)NC(=O)[C@@H](CCCNC(=N)N)NC(=O)CNC(=O)[C@H](NC(=O)[C@@H](CCCNC(=N)N)NC(=O)[C@@H](CO)NC(=O)[C@H](NC(=O)[C@@H](CCCNC(=N)N)NC(=O)[C@H](NC(C)=O)[C@H](C)O)C(C)C)[C@H](C)O)C(=O)N[C@H](CCCNC(=N)N)C(=O)N[C@H](C)C(=O)N[C@H](C)C(N)=O [Peptide 30, Ac-trvsrtgrsrwrdwsrnfmraa-NH2]
[1]
  pIC50: < 4.00
[2]
  Bactericidal activity for indigenous bacteria in human sebum, cfu/ml: 1000 cfu/ml
[3]
  Minimum bactericidal concentration (MBC) for P. acnes: 8 micromolar units
[4]
  Hemolytic effect on human red blood cells: 0%
[5]
  Minimum inhibitory concentration (MIC) E. coli Top10: 4 µM (≈ 11.2 µg/mL)

From patent publication US20050282755A1, “Compositions having antimicrobial activity and uses thereof” (priority 2004, published 2005)
